In patent US7666390B2, “DTPA derivatives and metal complexes thereof, and radiation source and contrast agent including the metal complexes” (Korea Atomic Energy Research Institute, priority 2005, dated 2010):

Assays:
[1] = Urinary excretion of the radioactive metal (^166Ho) complex in animals, gamma camera imaging and renal time activity curves; type: in vivo, rabbits (New Zealand White); settings: male rabbits; for half time of the maximum activity (T1/2) / time to maximum activity (Tmax): ear vein injection 3.0±0.2 mCi, from ROI time activity curve
Description: Male rabbits (New Zealand White) were anesthetized by intramuscular injection of 25 mg/kg of Ketamine (Yuhan Corporation, Korea) and 6 mg/kg of Rompun (Bayer Korea), and then received through the ear vein 3.0±0.2 mCi of ^166Ho-DTPA-bis(5-amido-2,4,6-triiodoisophthalic acid). The behavior of the drug was monitored for 30 min by scanning the whole body of rabbits using a gamma camera (SIMENSE, Germany). The gamma camera was equipped with a parallel hole collimator, and was set at an energy level of 81 keV. At this energy level, images were obtained using a medium-energy collimator with a window width of 20%.
In addition, regions of interest (ROIs) were created around the right and left kidneys to produce time activity curves. From the time activity curves, time to maximum activity (Tmax) and half time of the maximum activity (T1/2) for each kidney were calculated using a computer system (SINCTRON IV, Germany), and the results are given in FIG. 6.

[2] = Urinary excretion of the radioactive metal (^99mTc) complex in animals, gamma camera imaging and renal time activity curves; type: in vivo, rabbits (New Zealand White); settings: male rabbits; for time to achieve maximum activity (Tmax) / time to eliminate half of the maximum activity (T1/2): ear vein injection 1.0±0.1 mCi, from ROI time activity curve
Description: Male rabbits (New Zealand White) were anesthetized by the intramuscular injection of 25 mg/kg of Ketamine (Yuhan Corporation, Korea) and 6 mg/kg of Rompun (Bayer Korea), and then received through the ear vein 1.0±0.1 mCi of the ^99mTc-DTPA derivative complex, ^99mTc-DTPA-mono(3-amido-2,4,6-triiodobenzoic acid). The behavior of the drug was monitored for 30 min by scanning the whole body of rabbits using a gamma camera (SIMENSE, Germany). The gamma camera was equipped with a parallel hole collimator, and was set at an energy level of 140 keV to obtain images.
In addition, regions of interest (ROIs) were created around the right and left kidneys to produce time activity curves. From the time activity curves, time to achieve maximum activity (Tmax) and time to eliminate half of the maximum activity (T1/2) for each kidney were calculated using a computer system (SINCTRON IV, Germany), and the results are given in FIG. 4.

| half time of the maximum activity (T1/2) ([1]; left kidney) [min] | time to maximum activity (Tmax) ([1]; left kidney) [min] | time from injection by which mostly excreted via the kidneys and bladder ([1]; ear vein injection, whole body gamma camera scan for 30 min, 81 keV) [min] | half time of the maximum activity (T1/2) ([1]; right kidney) [min] | time to maximum activity (Tmax) ([1]; right kidney) [min] | time to achieve maximum activity (Tmax) ([2]; left kidney) [min] | time to eliminate half of the maximum activity (T1/2) ([2]; left kidney) [min] | time from injection by which mostly excreted via the kidneys and bladder ([2]; ear vein injection, whole body gamma camera scan for 30 min, 140 keV) [min] | time to achieve maximum activity (Tmax) ([2]; right kidney) [min] | time to eliminate half of the maximum activity (T1/2) ([2]; right kidney) [min] | Substance | radioactivity in the kidneys ([1]; 30 min after injection) | radioactivity in the kidneys ([2]; 30 min after injection) |
| --- | --- | --- | --- | --- | --- | --- | --- | --- | --- | --- | --- | --- |
| 6.5 | 1.5 | ≤ 30 | 7.5 | 1.75 | – | – | – | – | – | ^166Ho-DTPA-bis(5-amido-2,4,6-triiodoisophthalic acid) | decrease to a level near the non-specific background signal | – |
| – | – | – | – | – | 1 | 5 | ≤ 30 | 1 | 5.5 | ^99mTc-DTPA-mono(3-amido-2,4,6-triiodobenzoic acid) | – | decrease to a level near the non-specific background signal |
